Data on 38 molecules can be found in the SangsterLogP compilation.

Structures are written as SMILES.

Assay in one series: not given
`Cc1ccc(S(=O)(=O)c2ccc(N)cc2)c(C)c1` registered a logP of 2.69. Take `NS(=O)(=O)c1cccc([N+](=O)[O-])c1`: the logP was determined as 0.6. In turn, `COc1cccc(S(N)(=O)=O)c1` registered a logP of 0.65. This logP and that of the molecule before are within 0.2 log units of each other. On to `CC(=O)c1ccc(S(N)(=O)=O)cc1`, for which the logP stood at 0.31. With `Nc1ccc(S(=O)(=O)c2ccccc2)cc1`, the logP was 1.84. On the same count and under the same terms, the same measure for `CN(C)c1ccc(S(=O)(=O)c2ccc(N)cc2)cc1`: 1.93. `NC(=O)c1cccc(S(N)(=O)=O)c1` showed a logP of -0.55. The same measure, in the same setting: the same measure for `Nc1ccc(S(=O)(=O)c2ccc(Br)cc2)cc1`: 3.15; for `Nc1ccc(S(=O)(=O)c2ccc([N+](=O)[O-])cc2)cc1`: 2.03; for `N#Cc1ccc(S(N)(=O)=O)cc1`: 0.4. The same measure, in the same setting: the same measure for `N#Cc1cccc(S(N)(=O)=O)c1`: 0.27. As to `NS(=O)(=O)c1ccccc1`, the logP worked out at 0.33. In turn, `COC(=O)c1ccc(S(=O)(=O)c2ccc(N)cc2)cc1` had a logP of 2.13. Still for that read-out and setting: the same measure for `Nc1ccc(S(=O)(=O)c2ccc([N+](=O)[O-])cc2[N+](=O)[O-])cc1`: 1.84. In the case of `COc1ccc(S(=O)(=O)c2ccc(N)cc2)c(OC)c1`, the log partition coefficient (logP) was found to be 1.65. The logP values of the last two molecules are within 0.2 log units of each other. The molecule `NS(=O)(=O)c1ccc(S(N)(=O)=O)cc1` came in with a log partition coefficient (logP) of -0.7. With `NC(=O)c1ccc(S(N)(=O)=O)cc1`, the logP is -0.66. With `Cc1ccc(S(N)(=O)=O)cc1`, the logP turned out to be 0.83.

A further series in a line: method code SF-AS, from DOI: 10.1111/j.2042-7158.1991.tb06664.x, PMID: 1675277.
`NC(=O)c1ccc(S(=O)(=O)c2ccc(N)cc2)cc1` yielded a logP of 0.9. The molecule `Cc1ccc(S(=O)(=O)c2ccc(N)cc2)cc1` gave a logP of 2.4. On the same count and under the same terms, next, `Nc1ccc(S(=O)(=O)c2ccc(F)cc2)cc1`: 2.01; `Nc1ccc(S(=O)(=O)c2ccc(O)cc2O)cc1`: 1.29; `CC(=O)c1ccc(S(=O)(=O)c2ccc(N)cc2)cc1`: 1.67. On to `Nc1ccc(S(=O)(=O)c2ccc(O)cc2)cc1`, for which the logP was determined as 1.57.

On to `Nc1ccc(S(=O)(=O)c2ccc(N)cc2N)cc1`, for which the logP came out at 0.38. `Nc1ccc(S(=O)(=O)c2c(O)cc(O)cc2O)cc1` registered a logP of 1.53. Same read-out and setting: next, `CCNc1ccc(S(=O)(=O)c2ccc(N)cc2)cc1`: 1.98; `Nc1ccc(S(=O)(=O)c2ccc(Cl)cc2Cl)cc1`: 3.12; `CCN(CC)c1ccc(S(=O)(=O)c2ccc(N)cc2)cc1`: 3. Same read-out and setting: next, `Nc1ccc(S(=O)(=O)c2cccc(N)c2)cc1`: 1.03; `N#Cc1ccc(S(=O)(=O)c2ccc(N)cc2)cc1`: 1.63; `Nc1ccc(S(=O)(=O)c2ccc(NO)cc2)cc1`: 0.88. On the same count and under the same terms, the same measure for `CCN(CC)C(=O)c1ccc(S(=O)(=O)c2ccc(N)cc2)cc1`: 1.44; for `COc1ccc(S(=O)(=O)c2ccc(N)cc2)cc1`: 1.96. Take `Cc1cc(C)c(S(=O)(=O)c2ccc(N)cc2)c(C)c1`: the lipophilicity (logP) was 3.06. `Nc1ccc(S(=O)(=O)c2ccccc2N)cc1` had a logP of 1.56. The molecule `Nc1ccc(S(=O)(=O)c2ccc(Cl)cc2)cc1` gave a logP of 2.57. Still for that read-out and setting: next, `COc1cc(OC)c(S(=O)(=O)c2ccc(N)cc2)c(OC)c1`: 1.03.
